Test results from patent publication US8124793B2, “Derivatives of ethylene methanedisulfonate as cancer chemotherapeutic agents” (priority 2007, dated 2012).

Columns and labels:
Type in all cases: cell-based
COLO205 = test: NCI screen, growth of human tumor cells: Colon Cancer COLO205; details: COLO205 (Colon Cancer), 10^−4 molar
Experimental: (§1) In the NCI screening process, each compound was tested and described by a minimum of 60 data points. The test data include, but are not limited to the type of cancer, the molar concentration used in the screen, and the percent growth of the cancer. In some cases, NMR and elemental analysis were used for structural assignment.

U-251 = test: NCI screen, growth of human tumor cells: CNS Cancer U-251; details: U251, 10^−4 molar
Experimental: as §1

SW620 = test: NCI screen, growth of human tumor cells: Colon Cancer SW620; details: SW620 (Colon Cancer), 10^−4 molar
Experimental: as §1

NCI-H226 = test: NCI screen, growth of human tumor cells: Non-Small Cell Lung NCI-H226; details: NCI-H226 (Non-Small Cell Lung), 10^−4 molar
Experimental: as §1

SR = test: NCI screen, growth of human tumor cells: Leukemia SR; details: SR (Leukemia), 10^−4 molar
Experimental: as §1

OVCAR-5 = test: NCI screen, growth of human tumor cells: Ovarian Cancer OVCAR-5; details: OVCAR-5 (Ovarian Cancer), 10^−4 molar
Experimental: as §1

BT-549 = test: NCI screen, growth of human tumor cells: Breast Cancer BT-549; details: BT-549 (Breast Cancer), 10^−4 molar
Experimental: as §1

SNB-19 = test: NCI screen, growth of human tumor cells: CNS Cancer SNB-19; details: SNB-19 (CNS Cancer), 10^−4 molar
Experimental: as §1

HCT-15 = test: NCI screen, growth of human tumor cells: Colon Cancer HCT-15
Experimental: as §1

SN12C = test: NCI screen, growth of human tumor cells: Renal Cancer SN12C; details: SN12C (Renal Cancer), 10^−4 molar
Experimental: as §1

SF-539 = test: NCI screen, growth of human tumor cells: CNS Cancer SF-539; details: SF-539 (CNS Cancer), 10^−4 molar
Experimental: as §1

PC-3 = test: NCI screen, growth of human tumor cells: Prostate Cancer PC-3; details: PC-3 (Prostate Cancer), 10^−4 molar
Experimental: as §1

NCI-H23 = test: NCI screen, growth of human tumor cells: Non-Small Cell Lung NCI-H23; details: NCI-H23 (Non-Small Cell Lung), 10^−4 molar
Experimental: as §1

NCI-H460 = test: NCI screen, growth of human tumor cells: Non-Small Cell Lung NCI-H460; details: NCI-H460 (Non-Small Cell Lung), 10^−4 molar
Experimental: as §1

RPMI-8226 = test: NCI screen, growth of human tumor cells: Leukemia RPMI-8226; details: RPMI-8226 (Leukemia), 10^−4 molar
Experimental: as §1

DU-145 = test: NCI screen, growth of human tumor cells: Prostate Cancer DU-145; details: DU-145 (Prostate Cancer), 10^−4 molar
Experimental: as §1

MDA-MB-231/ATCC = test: NCI screen, growth of human tumor cells: Breast Cancer MDA-MB-231/ATCC; details: MDA-MB-231/ATCC (Breast Cancer), 10^−4 molar
Experimental: as §1

K562 = test: NCI screen, growth of human tumor cells: Leukemia K562; details: K562 (Leukemia), 10^−4 molar
Experimental: as §1

UO-31 = test: NCI screen, growth of human tumor cells: Renal Cancer UO-31; details: UO-31 (Renal Cancer), 10^−4 molar
Experimental: as §1

CCRF-CEM = test: NCI screen, growth of human tumor cells: Leukemia CCRF-CEM; details: CCRF-CEM (Leukemia), 10^−4 molar
Experimental: as §1

IGROVI = test: NCI screen, growth of human tumor cells: Ovarian Cancer IGROVI; details: for % Growth: IGROVI
Experimental: as §1

HOP-92 = test: NCI screen, growth of human tumor cells: Non-Small Cell Lung HOP-92; details: HOP-92 (Non-Small Cell Lung), 10^−4 molar
Experimental: as §1

KM12 = test: NCI screen, growth of human tumor cells: Colon Cancer KM12; details: KM12 (Colon Cancer), 10^−4 molar
Experimental: as §1

786-0 = test: NCI screen, growth of human tumor cells: Renal Cancer 786-0; details: 786-0 (Renal Cancer), 10^−4 molar
Experimental: as §1

MCF 7 = test: NCI screen, growth of human tumor cells: Breast Cancer MCF 7; details: MCF 7 (Breast Cancer), 10^−4 molar
Experimental: as §1

HOP-62 = test: NCI screen, growth of human tumor cells: Non-Small Cell Lung HOP-62; details: HOP-62 (Non-Small Cell Lung), 10^−4 molar
Experimental: as §1

human cancer cells = test: NCI screen summary over the cancers tested (negative growth of human cancer cells); details: 10^−4 M conc.; cancers with negative growth / cancers tested
Experimental: as §1
The derivatives in the tables are grouped using the same category as in the tables 1-6.

RXF-393 = test: NCI screen, growth of human tumor cells: Renal Cancer RXF-393; details: RXF-393 (Renal Cancer), 10^−4 molar
Experimental: as §1

UACC-62 = test: NCI screen, growth of human tumor cells: Melanoma UACC-62; details: UACC-62 (Melanoma), 10^−4 molar
Experimental: as §1

UACC-257 = test: NCI screen, growth of human tumor cells: Melanoma UACC-257; details: UACC-257 (Melanoma), 10^−4 molar
Experimental: as §1

OVCAR-8 = test: NCI screen, growth of human tumor cells: Ovarian Cancer OVCAR-8; details: OVCAR-8 (Ovarian Cancer), 10^−4 molar
Experimental: as §1

SK-MEL-28 = test: NCI screen, growth of human tumor cells: Melanoma SK-MEL-28; details: SK-MEL-28 (Melanoma), 10^−4 molar
Experimental: as §1

MCF7/ADR-RES = test: NCI screen, growth of human tumor cells: Breast Cancer MCF7/ADR-RES; details: MCF7/ADR-RES (Breast Cancer), 10^−4 molar
Experimental: as §1

HCT-116 = test: NCI screen, growth of human tumor cells: Colon Cancer HCT-116
Experimental: as §1

HS 578T = test: NCI screen, growth of human tumor cells: Breast Cancer HS 578T; details: HS 578T (Breast Cancer), 10^−4 molar
Experimental: as §1

SF-268 = test: NCI screen, growth of human tumor cells: CNS Cancer SF-268; details: SF-268 (CNS Cancer), 10^−4 molar
Experimental: as §1

HT29 = test: NCI screen, growth of human tumor cells: Colon Cancer HT29; details: HT29 (Colon Cancer), 10^−4 molar
Experimental: as §1

EKVX = test: NCI screen, growth of human tumor cells: Non-Small Cell Lung EKVX; details: EKVX
Experimental: as §1

ACHN = test: NCI screen, growth of human tumor cells: Renal Cancer ACHN; details: ACHN (Renal Cancer), 10^−4 molar
Experimental: as §1

MALME-3M = test: NCI screen, growth of human tumor cells: Melanoma MALME-3M; details: MALME-3M (Melanoma), 10^−4 molar
Experimental: as §1

OVCAR-3 = test: NCI screen, growth of human tumor cells: Ovarian Cancer OVCAR-3; details: OVCAR-3 (Ovarian Cancer), 10^−4 molar
Experimental: as §1

CAKI-1 = test: NCI screen, growth of human tumor cells: Renal Cancer CAKI-1; details: CAKI-1 (Renal Cancer), 10^−4 molar
Experimental: as §1

M14 = test: NCI screen, growth of human tumor cells: Melanoma M14; details: M14 (Melanoma), 10^−4 molar
Experimental: as §1

CC=CC(=O)C1(Cc2ccc3c(c2)C(=O)c2ccccc2C3=O)S(=O)(=O)OCCOS1(=O)=O [NSC 731263]
percent of growth of human tumor cells (COLO205): 5%
% Growth (U-251): −85%
percent of growth of human tumor cells (SW620): −38%
percent of growth of human tumor cells (NCI-H226): 10%
percent of growth of human tumor cells (SR): 24%
percent of growth of human tumor cells (OVCAR-5): 20%
percent of growth of human tumor cells (BT-549): −20%
percent of growth of human tumor cells (SNB-19): 10%
% Growth (HCT-15; HCT-15, 10^−4 molar): −65%
percent of growth of human tumor cells (SN12C): −53%
percent of growth of human tumor cells (SF-539): −23%
percent of growth of human tumor cells (PC-3): 11%
percent of growth of human tumor cells (NCI-H23): 31%
percent of growth of human tumor cells (NCI-H460): 2%
percent of growth of human tumor cells (RPMI-8226): −7%
percent of growth of human tumor cells (DU-145): 1%
percent of growth of human tumor cells (MDA-MB-231/ATCC): −33%
percent of growth of human tumor cells (K562): 12%
percent of growth of human tumor cells (UO-31): 1%
percent of growth of human tumor cells (CCRF-CEM): 15%
percent of growth of human tumor cells (IGROVI; IGROVI (Ovarian Cancer), 10^−4 molar): 3%
percent of growth of human tumor cells (HOP-92): −16%
percent of growth of human tumor cells (KM12): 2%
percent of growth of human tumor cells (786-0): 1%
percent of growth of human tumor cells (MCF 7): −17%
percent of growth of human tumor cells (HOP-62): −38%
Percentage of cancers showing negative growth cancers tested (human cancer cells): 10^−4 M conc. = 18/36 = 50%
percent of growth of human tumor cells (RXF-393): −45%
percent of growth of human tumor cells (UACC-62): 16%
percent of growth of human tumor cells (UACC-257): −20%
percent of growth of human tumor cells (OVCAR-8): −39%
percent of growth of human tumor cells (SK-MEL-28): −23%
percent of growth of human tumor cells (MCF7/ADR-RES): 11%
% Growth (HCT-116; HCT-116, 10^−4 molar): −100%
percent of growth of human tumor cells (HS 578T): −18%
percent of growth of human tumor cells (SF-268): −24%
percent of growth of human tumor cells (HT29): 1%

O=C(c1ccccc1S(=O)(=O)O)C1S(=O)(=O)OCCOS1(=O)=O [NSC 693880]
percent of growth of human tumor cells (COLO205): 5%
% Growth (EKVX; 10^−4 molar): 25%
% Growth (EKVX; 10^−5 molar): 6%
% Growth (HCT-15; HCT-15, 10^−4 molar): −41%
% Growth (HCT-15; HCT-15, 10^−5 molar): 40%
percent of growth of human tumor cells (PC-3): 5%
percent of growth of human tumor cells (NCI-H23): 12%
percent of growth of human tumor cells (ACHN): 8%
percent of growth of human tumor cells (NCI-H460): −11%
percent of growth of human tumor cells (MDA-MB-231/ATCC): 25%
percent of growth of human tumor cells (MALME-3M): −15%
% Growth (IGROVI; 10^−4 molar): −21%
% Growth (IGROVI; 10^−5 molar): 37%
% Growth (IGROVI; 10^−6 molar): 60%
percent of growth of human tumor cells (MCF 7): −1%
percent of growth of human tumor cells (OVCAR-3): 76%
Percentage of cancers showing negative growth cancers tested (human cancer cells): 10^−4 M conc. = 8/17 = 47%
percent of growth of human tumor cells (OVCAR-8): −33%
percent of growth of human tumor cells (CAKI-1): −8%
percent of growth of human tumor cells (MCF7/ADR-RES): 4%
percent of growth of human tumor cells (HCT-116; HCT-116 (Colon Cancer), 10^−4 molar): 20%
percent of growth of human tumor cells (M14): −4%
